Legend:
[1] = target: T1, Endothelin receptor type B (Homo sapiens, UniProt P24530); test: Binding affinity to CHO cells stably expressing human Endothelin B receptor.; type: cell-based
T1 sequence (P24530 whole entry): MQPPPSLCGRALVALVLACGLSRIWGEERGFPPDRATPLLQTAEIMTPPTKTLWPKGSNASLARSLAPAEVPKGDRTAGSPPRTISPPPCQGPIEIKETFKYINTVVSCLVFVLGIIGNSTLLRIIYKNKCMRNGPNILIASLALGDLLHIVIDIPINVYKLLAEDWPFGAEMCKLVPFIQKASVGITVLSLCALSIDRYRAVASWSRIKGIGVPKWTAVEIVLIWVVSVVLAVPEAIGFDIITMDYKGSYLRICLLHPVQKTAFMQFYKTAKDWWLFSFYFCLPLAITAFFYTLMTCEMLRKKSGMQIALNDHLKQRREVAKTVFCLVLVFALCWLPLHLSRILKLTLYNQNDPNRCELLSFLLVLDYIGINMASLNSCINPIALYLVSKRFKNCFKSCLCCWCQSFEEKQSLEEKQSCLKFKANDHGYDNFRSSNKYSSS

Endothelin-1 receptor = target: T2, Endothelin-1 receptor (Homo sapiens, UniProt P25101); test: biochemical
T2 sequence (P25101 whole entry): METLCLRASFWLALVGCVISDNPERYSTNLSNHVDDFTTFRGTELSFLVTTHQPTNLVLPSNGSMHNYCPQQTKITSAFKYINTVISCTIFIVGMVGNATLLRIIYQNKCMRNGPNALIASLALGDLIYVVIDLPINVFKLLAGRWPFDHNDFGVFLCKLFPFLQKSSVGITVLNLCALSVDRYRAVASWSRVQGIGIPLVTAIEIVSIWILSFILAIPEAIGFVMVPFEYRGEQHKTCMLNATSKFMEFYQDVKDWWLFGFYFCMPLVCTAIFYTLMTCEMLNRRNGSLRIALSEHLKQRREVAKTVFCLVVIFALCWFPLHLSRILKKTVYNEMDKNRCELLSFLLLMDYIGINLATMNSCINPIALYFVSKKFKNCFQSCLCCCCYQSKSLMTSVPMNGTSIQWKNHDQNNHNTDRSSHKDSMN
Description: Binding affinity to CHO cells stably expressing human Endothelin A receptor.

Ki [1] | Ki (Endothelin-1 receptor) | Structure (SMILES)
48 µM | 0.22 µM | COc1cc(OC)nc(-c2ccc(-c3ccccc3S(=O)(=O)Nc3onc(C)c3C)cc2)n1
6.3 µM | 0.0023 µM | Cc1noc(NS(=O)(=O)c2ccccc2-c2ccc(-c3ccccn3)cc2)c1C
52 µM | 0.0056 µM | Cc1noc(NS(=O)(=O)c2ccccc2-c2ccc(-c3nccs3)cc2)c1C
20 µM | 0.0033 µM | Cc1noc(NS(=O)(=O)c2ccccc2-c2ccc(-c3cccnc3)cc2)c1C
120 µM | 0.019 µM | Cc1noc(NS(=O)(=O)c2ccccc2-c2ccc(-c3nccn3C)cc2)c1C
75 µM | 0.004 µM | Cc1noc(NS(=O)(=O)c2ccccc2-c2ccc(-c3nnco3)cc2)c1C
130 µM | 0.025 µM | Cc1noc(NS(=O)(=O)c2ccccc2-c2ccc(-c3ccncn3)cc2)c1C
16 µM | 0.0009 µM | Cc1noc(NS(=O)(=O)c2ccccc2-c2ccc(-c3ncccn3)cc2)c1C
22 µM | 0.0062 µM | Cc1noc(NS(=O)(=O)c2ccccc2-c2ccc(-c3cnccn3)cc2)c1C
170 µM | 0.3 µM | Cc1noc(NS(=O)(=O)c2ccccc2-c2ccc(-c3cncnc3)cc2)c1C
39 µM | 0.27 µM | Cc1noc(NS(=O)(=O)c2ccccc2-c2ccc(-c3ccno3)cc2)c1C
30.8 µM | 0.037 µM | Cc1[n-][o+]c(NS(=O)(=O)c2ccccc2-c2ccc(-c3cccc[n+]3[O-])cc2)c1C
9.4 µM | 0.0067 µM | Cc1noc(NS(=O)(=O)c2ccccc2-c2ccc(-n3cccn3)cc2)c1C
20 µM | 0.038 µM | Cc1noc(NS(=O)(=O)c2ccccc2-c2ccc(-c3ccccc3)cc2)c1C
> 200 µM | 3.8 µM | Cc1noc(NS(=O)(=O)c2ccccc2-c2ccc(-c3nnn[nH]3)cc2)c1C
150 µM | 0.044 µM | Cc1noc(NS(=O)(=O)c2ccccc2-c2ccc(-c3ncc[nH]3)cc2)c1C

Reference: ChEMBL document CHEMBL1135054, “Biphenylsulfonamide endothelin receptor antagonists. Part 3: structure-activity relationship of 4'-heterocyclic biphenylsulfonamides” (Bioorg Med Chem Lett, 2002)
